According to article PMC9737838, “Long-Distance Protonation-Conformation Coupling in Phytochrome Species” (Molecules, 2022):

Molecular target: T1, Agp1-PGP (photosensory module PAS-GAF-PHY of Agp1) (Agrobacterium fabrum, UniProt Q7CY45)
T1 construct: gene Atu1990; photosensory module PAS-GAF-PHY, residues 1-504, C-terminal His6 tag; apoprotein from E. coli assembled with biliverdin; plasmids with and without deletion of the first 9 residues used for mutagenesis
T1 sequence (Q7CY45 1-495): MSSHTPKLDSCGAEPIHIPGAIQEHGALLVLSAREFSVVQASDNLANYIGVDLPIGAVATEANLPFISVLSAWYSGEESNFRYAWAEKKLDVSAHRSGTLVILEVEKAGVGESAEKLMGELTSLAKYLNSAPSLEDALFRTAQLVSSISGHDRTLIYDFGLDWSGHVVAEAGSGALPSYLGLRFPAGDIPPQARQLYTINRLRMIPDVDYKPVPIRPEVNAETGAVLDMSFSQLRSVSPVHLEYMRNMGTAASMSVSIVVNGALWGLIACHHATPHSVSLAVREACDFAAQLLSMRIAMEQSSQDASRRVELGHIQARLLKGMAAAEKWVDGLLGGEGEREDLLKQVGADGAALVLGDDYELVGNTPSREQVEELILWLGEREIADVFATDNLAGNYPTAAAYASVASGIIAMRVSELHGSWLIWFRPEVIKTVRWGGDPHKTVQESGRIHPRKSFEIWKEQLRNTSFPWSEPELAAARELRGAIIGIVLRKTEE
Assay: UV-Vis absorption of the assembled holoprotein, pH titration
Assay type: binding
Conditions: covalent, Cys20; Pr state, 702 nm band, 300 mM NaCl, 50 mM Tris, 20 °C

C=CC1=C(C)/C(=C/C2=NC(=C\c3[nH]c(/C=C4\NC(=O)C(C)=C4C=C)c(C)c3CCC(=O)O)/C(CCC(=O)O)=C2C)NC1=O [BV, biliverdin]
UV-Vis absorption of the assembled holoprotein, pH titration: The apoprotein was expressed and assembled with BV according to established protocols
